This note sets out measurements from US5686424A, “2-oxoethyl derivatives as immunosuppressants” (Miles Inc., priority 1995, dated 1997).

Read-outs that look alike come from different tables or passages of the source.

One test deals with FKBP (Homo sapiens, UniProt P62942). The test can be described thus: PPIase Inhibition Assay. The note with it: concentration of inhibitor required for 50% inhibition of enzyme activity; FKBP, substrate Succinyl-Ala-Phe-Pro-Phe-para-nitroanilide; TABLE I. The test is classed as biochemical. The essentials: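 Chymotrypsin-coupled isomerization of Succinyl-Ala-Phe-Pro-Phe-para-nitroanilide by FKBP in ice-cold 25 mM HEPES pH 7.8, 100 mM NaCl, compound in DMSO. A390 followed 90 sec; first-order rate constants give % activity remaining after subtracting uncatalyzed rate; IC50 by linear regression of V-/V+ versus concentration.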
Chain of FKBP (P62942 whole entry): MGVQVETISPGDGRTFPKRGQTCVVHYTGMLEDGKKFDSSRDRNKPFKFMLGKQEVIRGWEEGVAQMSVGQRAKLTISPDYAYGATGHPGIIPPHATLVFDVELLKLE

Another test relates to human T-cells. The test can be described thus: Suppression of Human T-Cell Proliferation Assay (PHA-stimulated, [3H]-thymidine incorporation). To be noted: TABLE 2. The test is classed as cell-based. The essentials: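 SRBC-rosette-purified human peripheral T-cells stimulated with PHA-M (40 μg/ml stock) and compound dilutions, in duplicate, for 72 h at 37° C. Proliferation measured by [3H]-thymidine incorporation during the final 6 h, read by liquid scintillation counting.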
(In general: Incorporation of labelled thymidine or its analogues reports DNA synthesis.)

The mark [1] stands for this setting: read-out: concentrations that suppress the T-cell proliferative response by 50%.
The mark [2] stands for this setting: concentration inhibiting [3H]-thymidine incorporation of PHA-stimulated T-cells by 50%, 72 hours, read-out: IC50.

`CC[C@H](C)[C@H](NC(=O)[C@@H]1CCCN1CC(=O)NC12CC3CC(CC(C3)C1)C2)C(=O)NCc1ccccc1` [Example 39, L-Isoleucine, N-[1-(2-Aminoadamant-1-yl-2-oxoethyl)-L-Prolyl] Benzylamide]: the IC50 was 15 µM on FKBP, below 10 µM in the test with human T-cells (setting [1]) and 6 µM in the test on human T-cells (setting [2]).

For `CC[C@H](C)[C@H](NC(=O)[C@@H]1CCCN1CC(=O)C1CC2CC(C1C)C2(C)C)C(=O)NCc1ccccc1` (stereo partly drawn) [Example 41, L-Isoleucine, N-[1-[2-(2,6,6-Trimethyl-Bicyclo[3.1.1]hept-3-yl)-2-Oxoethyl]-L-Prolyl] Benzylamide], the figures for the IC50 against FKBP, in the test on human T-cells (setting [1]) and in the test on human T-cells (setting [2]) were below 5 µM, below 10 µM and 6 µM, respectively.

Regarding `O=C(NCc1ccccc1)[C@H](COCc1ccccc1)NC(=O)[C@@H]1CCCN1CC(=O)C12CC3CC(CC(C3)C1)C2` [Example 62, L-Serine-(O-Benzyl Ether), N-[1-(2-Adamantan-1-yl-2-Oxoethyl)-L-Prolyl] Benzylamide], the IC50 at FKBP is 1.3 µM; in the test with human T-cells (setting [1]) it was below 10 µM; in the test on human T-cells (setting [2]), 4 µM.

As for `O=C(CC(NC(=O)[C@@H]1CCCN1CC(=O)C12CC3CC(CC(C3)C1)C2)c1ccccc1)NCc1ccccc1` (stereo partly drawn) [Example 63, L-β-Phenylalanine, N-[1-(2-Adamantan-1-yl-2-Oxoethyl)-L-Prolyl] Benzylamide], the values for the IC50 against FKBP, with human T-cells (setting [1]) and in the test on human T-cells (setting [2]) were 0.3 µM, below 10 µM and 6 µM, respectively.

As to `CC[C@H](C)[C@H](NC(=O)[C@@H]1CCCN1CC(=O)C12CC3CC(CC(C3)C1)C2)C(=O)N[C@H](C)c1ccccc1` [Example 66, L-Isoleucine, N-[1-(2-Adamantan-1-yl-2-Oxoethyl)-L-Prolyl] alpha-(R)-methylbenzylamide], the IC50 at FKBP was 0.1 µM; in the test on human T-cells (setting [1]) it was below 10 µM; with human T-cells (setting [2]) it was 3 µM.

On to `CC[C@H](C)[C@H](NC(=O)[C@@H]1CCCN1CC(=O)NC1C2CC3CC(C2)CC1C3)C(=O)NCc1ccccc1` (stereo partly drawn) [Example 90, L-Isoleucine, N-[1-(Adamantan-2-ylcarbamoylmethyl)-L-Prolyl] Benzylamide], for which the IC50 is below 5 µM against FKBP, below 10 µM with human T-cells (setting [1]) and 6 µM in the test with human T-cells (setting [2]).

For `CC[C@H](C)[C@H](NC(=O)[C@@H]1CCCN1CC(=O)O[C@H](c1ccccc1)C(C)C)C(=O)NCc1ccccc1` [Example 92, L-Isoleucine, N-[1-(2-(2-Methyl-1-(S)-Phenyl-1-Propoxy)-2-Oxoethyl)-L-Prolyl] Benzylamide], the results for the IC50 against FKBP, in the test with human T-cells (setting [1]) and in the test with human T-cells (setting [2]) were 0.6 µM, below 10 µM and 6 µM, respectively.

Consider `CC[C@H](C)[C@H](NC(=O)[C@@H]1CCCN1CC(=O)O[C@@H](c1ccccc1)C(C)C)C(=O)NCc1ccccc1` [Example 93, L-Isoleucine, N-[1-(2-(2-Methyl-1-(R)-Phenyl-1-Propoxy)-2-Oxoethyl)-L-Prolyl] Benzylamide], for which the figures for the IC50 on FKBP, in the test on human T-cells (setting [1]) and in the test on human T-cells (setting [2]) were 1.2 µM, below 10 µM and 6 µM, respectively.
